Assay results from publication PMC11093668 (Clinical Infectious Diseases: An Official Publication of …, 2023).
Where two headings read alike, the source gives them in different places.

Assays:
[1] = human, in vivo
HIV [2] = system: HIV; set-up: method as in ref 26 = [26]; 26 Gonzalez de Requena D , Bonora S , Canta F , et al Atazanavir trough is associated with efficacy and safety: definition of therapeutic range. In: 6th Intenational Workshop on Clinical Pharmacology; conditions: secondary target; cited from earlier work
clinical = conditions: human, in vivo, geometric mean (90% CI)
HIV [3] = system: HIV; set-up: method as in ref 25 = [25]; 25 Fda, Cder . Reyataz (atazanavir sulfate) capsules label. Available at: www.fda.gov/medwatch . Accessed 17 September 2019.; conditions: primary target minimum concentration; cited from earlier work
[4] = atazanavir co-administration; cited from earlier work

COC(=O)N[C@H](C(=O)N[C@@H](Cc1ccccc1)[C@@H](O)CN(Cc1ccc(-c2ccccn2)cc1)NC(=O)[C@@H](NC(=O)OC)C(C)(C)C)C(C)(C)C [Atazanavir, atazanavir]
AUC24, geometric mean (90% CI) [1]: 40 (35–46) mg·h/L | Clearance/F, geometric mean (90% CI) [1]: 7.5 (6.6–8.7) L/h | T1/2, geometric mean (90% CI) [1]: 11 (10–12) h | Ctau, geometric mean ratio (90% CI) ([1]; 12 h): 0.98 (0.81–1.2) | Ctau, geometric mean (90% CI) ([1]; 24 h): 0.59 (0.48–0.74) mg/L | Ctau, geometric mean ratio (90% CI) ([1]; 24 h): 0.039 (0.032– 0.048) | lowest Ctau, fold higher than PA-IC90 ([1]; 24 h): 12.7 fold | proportion of Ctau below the limit of quantification (0.03 mg/L) ([1]; 24 h): 65% | minimum effective concentration (MEC) (HIV [2]): 0.15 mg/L | Cmax (clinical): 4600 ng/mL | protein-adjusted IC90 (PA-IC90) (HIV [3]): 0.014 µg/mL

C[C@@H]1CCO[C@H]2Cn3cc(C(=O)NCc4ccc(F)cc4F)c(=O)c(O)c3C(=O)N12 [Dolutegravir, dolutegravir]
AUC24 (exposure) higher with dose escalation of ATV/r [1]: 1.6 fold | Ctau higher with dose escalation of ATV/r ([1]; 12 h): 2 folds | increase in dolutegravir exposure [4]: 91%

CO[C@H]1/C=C/O[C@@]2(C)Oc3c(C)c(O)c4c(O)c(c(/C=N/N5CCN(C)CC5)c(O)c4c3C2=O)NC(=O)/C(C)=C\C=C\[C@H](C)[C@H](O)[C@@H](C)[C@@H](O)[C@@H](C)[C@H](OC(C)=O)[C@@H]1C [Rifampicin, rifampicin]
Ctau higher with dose escalated ATV/r ([1]; 24 h): 40%

CC(C)c1nc(CN(C)C(=O)N[C@H](C(=O)N[C@@H](Cc2ccccc2)C[C@H](O)[C@H](Cc2ccccc2)NC(=O)OCc2cncs2)C(C)C)cs1 [Ritonavir, ritonavir]
AUC24, geometric mean (90% CI) [1]: 9.5 (8.4 - 11) mg·h/L | Clearance/F, geometric mean (90% CI) [1]: 11 (9.34 - 11.9 L/h | T1/2, geometric mean (90% CI) [1]: 5.7 (5.4- 6.1) h | Ctau, geometric mean (90% CI) ([1]; 24 h): 0.068 (0.060- 0.077) mg/L
